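Values below derive from 48-hour exposures of cells grown in 96-well plates, with endpoints linearly interpolated between the two concentrations bracketing the appropriate inhibition level. TGI marks complete inhibition of growth.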
Tests used:
Assay in all cases: growth of human tumour cells (NCI), 48 h
[1] = system: NCI-H522 lung
[2] = system: M19-MEL melanoma
[3] = system: A498 renal
[4] = system: LXFL 529 NSCLC
[5] = system: SK-MEL-28 melanoma
[6] = system: HOP-92 NSCLC
[7] = system: EKVX NSCLC
[8] = system: KM20L2 colon
[9] = system: HCC-2998 colon
[10] = system: SNB-19 CNS
[11] = system: HL-60(TB) leukemia
[12] = system: COLO 205 colon
[13] = system: M14 melanoma
[14] = system: RPMI-8226 leukemia
[15] = system: K-562 leukemia
[16] = system: OVCAR-5 ovarian
[17] = system: SF-295 CNS
[18] = system: HT29 colon
[19] = system: UO-31 renal
[20] = system: SK-MEL-5 melanoma
[21] = system: NCI-H460 lung
[22] = system: LOX IMVI melanoma
[23] = system: 786-0 renal
[24] = system: MOLT-4 leukemia
[25] = system: IGROV1 ovarian
[26] = system: RXF-631 renal
[27] = system: DMS 273 small cell lung
[28] = system: DMS 114 small cell lung
[29] = system: RXF 393 renal
[30] = system: OVCAR-3 ovarian
[31] = system: SK-MEL-2 melanoma
[32] = system: UACC-257 melanoma
[33] = system: HCT-15 colon
[34] = system: SF-539 CNS
[35] = system: SNB-78 CNS
[36] = system: NCI-H23 lung
[37] = system: SK-OV-3 ovarian
[38] = system: MALME-3M melanoma
[39] = system: TK-10 renal
[40] = system: SN12C renal
[41] = system: UACC-62 melanoma
[42] = system: CCRF-CEM leukemia
[43] = system: U251 CNS
[44] = system: HOP-62 NSCLC
[45] = system: ACHN renal
[46] = system: SNB-75 CNS
[47] = system: HOP-18 NSCLC
[48] = system: DLD-1 colon
[49] = system: SW-620 colon
[50] = system: SF-268 CNS
[51] = system: OVCAR-8 ovarian
[52] = system: OVCAR-4 ovarian
[53] = system: A549 NSCLC
[54] = system: SR leukemia
[55] = system: NCI-H226 lung
[56] = system: HCT-116 colon
[57] = system: KM12 colon
[58] = system: CAKI-1 renal

Cc1c(Cl)ccc2c1NC(=O)C2(O)CC(=O)c1ccc(Cl)cc1 (stereo not drawn)
TGI [1]: > 100 µM
TGI [2]: 26.9 µM
TGI [3]: > 64.1 µM
TGI [4]: > 53.3 µM
TGI [5]: > 100 µM
TGI [6]: > 100 µM
TGI [7]: > 100 µM
TGI [8]: > 100 µM
TGI [9]: > 56.2 µM
TGI [10]: > 100 µM
TGI [11]: > 80.6 µM
TGI [12]: > 64.9 µM
TGI [13]: > 100 µM
TGI [14]: > 84.3 µM
TGI [15]: > 64.8 µM
TGI [16]: > 100 µM
TGI [17]: > 58.3 µM
TGI [18]: > 66.1 µM
TGI [19]: > 100 µM
TGI [20]: > 100 µM
TGI [21]: > 63.3 µM
TGI [22]: > 46.3 µM
TGI [23]: > 100 µM
TGI [24]: 63.7 µM
TGI [25]: > 100 µM
TGI [26]: > 100 µM
TGI [27]: > 100 µM
TGI [28]: 37.1 µM
TGI [29]: > 88.5 µM
TGI [30]: > 100 µM
TGI [31]: > 64.2 µM
TGI [32]: > 55.9 µM
TGI [33]: > 60.1 µM
TGI [34]: > 100 µM
TGI [35]: > 100 µM
TGI [36]: > 100 µM
TGI [37]: > 100 µM
TGI [38]: > 54.4 µM
TGI [39]: > 100 µM
TGI [40]: > 54.9 µM
TGI [41]: > 71.5 µM
TGI [42]: 53.5 µM
TGI [43]: > 100 µM
TGI [44]: > 100 µM
TGI [45]: > 100 µM
TGI [46]: > 100 µM
TGI [47]: > 100 µM
TGI [48]: > 100 µM
TGI [49]: > 53.1 µM
TGI [50]: > 100 µM
TGI [51]: > 100 µM
TGI [52]: > 100 µM
TGI [53]: > 100 µM
TGI [54]: > 57.1 µM
TGI [55]: > 100 µM
TGI [56]: > 54 µM
TGI [57]: > 100 µM
TGI [58]: > 100 µM

— PubChem BioAssay (NCI)
